In brackets after ≈: the same amount, converted by molar mass. Where two headings read alike, the source gives them in different places.
Legend:
[1] = test system: HIV-1 (IIIB); test: microbe, parasite or virus in culture; format: cell-based; conditions: Human immunodeficiency virus 1, IIIB, CCRF-CEM; CEM cells, syncytium formation, day four post infection; read-out: EC50 (ug/ml) HIV-1
Method in brief: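 Human T-lymphoblast CEM cells at roughly 300,000 cells per ml were infected with about 100 CCID50 of HIV-1 (IIIB). Then 100 μl of the infected suspension went into 200 μl microtiter wells holding 100 μl of 5-fold serial compound dilutions. Inhibition of syncytium formation was scored microscopically on day four post infection, and protection against virus-induced cytopathicity was recorded.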

[2] = test system: HIV-2 (ROD); test: Inhibition of HIV-2 syncytium formation in CEM cells; format: cell-based; conditions: for EC50: Human immunodeficiency virus 2, CCRF-CEM, CEM cells, syncytium formation, day four post infection, read-out: EC50 (ug/ml) HIV-2
Method in brief: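 Human T-lymphoblast CEM cells, suspended at roughly 300,000 cells per ml of culture medium, were infected with about 100 CCID50 of HIV-2 (ROD). Aliquots of 100 μl of infected cells were placed in 200 μl microtiter wells holding 100 μl of serial 5-fold compound dilutions, and syncytium formation was scored microscopically four days after infection.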

[3] = test system: MOLT-3 cells; test: Toxicity in MOLT-3 cells, changes in cell morphology by microscopic examination; format: cell-based, human
Description: (§1) Two human immature T-lymphoblastoid cell lines were used: HSB-2, obtained from American Type Culture Collection (No. CCL 120.1); and MOLT-3, purchased from ABI Technologies (Columbia, Md., USA). The cells were propagated in RPMI 1640 medium supplemented with 10% fetal calf serum, 2 mM L-glutamine, 0.075% sodium bicarbonate and gentamycin. The cultures were incubated at 37° C. in a humidified and CO2 controlled incubator.
(§2) The cells were incubated at 37° C. and subcultivated on days four and seven by two-fold dilution in medium containing fresh test compound or control. On days 10–14, the cells were examined microscopically to score the viral cytopathic effect (CPE) visible by the appearance of large ballooning cells and drug toxicity. Then total DNA was extracted from the infected cells with the QIAamp Blood Kit (Qiagen, Germany), using the manufacturer's instructions, and the DNA extracts were frozen at −20° C. until further analysis.
The antiviral IC50 was calculated by extrapolation and defined as the compound concentration that produced 50% inhibition of virus replication as determined by microscopic examination or quantitation of viral DNA. Toxicity of the compounds was expressed as minimum cytotoxic concentration (MCC), or the lowest compound concentration that caused a microscopically visible alteration in cellular morphology.

[4] = test system: HHV-6 (Z-29 strain, variant B); test: Anti-HHV-6 activity in MOLT-3 cells (CPE and viral DNA slot blot); format: cell-based, human herpes virus type 6 (HHV-6); conditions: Homo sapiens
Description: as §1
The GS strain of HHV-6 variant A was kindly provided by Dr. R. Gallo, while the Z-29 strain of HHV-6 variant B was obtained from ABI Technologies (Columbia, Md., USA). For preparation of virus stocks, suspensions of HSB-2 cells infected with strain GS, or MOLT-3 cells infected with strain Z-29, were collected at 10–12 days post infection, when the cytopathic effect (CPE) was maximal and cells were >90% virus positive (as determined by immunofluorescence detection of HHV-6 antigens). Since the titer of virus released in culture supernatant was insufficient, virus stocks were used as whole cell suspensions, which were relatively stable when kept in aliquots at −80° C.
Stock solutions of the test compounds or of standards were prepared in dimethylsulfoxide or phosphate buffered saline (PBS). Working dilutions for the antiviral assays were prepared by appropriate dilution of the stock solutions in cell culture medium. The antiherpetic drug Foscarnet (PFA, Foscavir® from Astra, Södertälje, Sweden) was used as standard.
On day 0, the GS and Z-29 strains of HHV-6 were inoculated onto HSB-2 cells and MOLT-3 cells, respectively, at a multiplicity of infection of 0.001 CCID50 (50% cell culture infective doses) per cell, and a cell suspension having a cell density of approximately 5×10^6 cells per ml of culture medium. After two hours of virus adsorption at 37° C., the unadsorbed virus was removed by centrifugation and the infected cells were resuspended and transferred to 48-well microtrays containing the test compounds or control in two- to five-fold dilutions. The final cell density of the suspended cells was approximately 0.8×10^6 cells per ml of culture medium.
as §2
A digoxigenin labeled probe specific for strain GS or Z-29, was prepared by PCR reaction in the presence of digoxigenin-dUTP, on a 1-μl aliquot of a DNA extract prepared from infected cells showing manifest CPE. The 5′-3′ primer sequence was GCTAGAACG TATTTGCTGCAGAACG (Seq. Id. No. 1) and […] (Seq. Id. No. 2), delimiting a 259 bp sequence within the U67 gene. The amplified product was separated on agarose gel and extracted from the gel fragment with the QIAquick gel extraction kit (Qiagen, Germany) after which the purified probe was frozen at −20° C.
For quantitation of viral DNA in the infected and drug-treated cell cultures, appropriate aliquots of the total DNA extracts (containing 5 μg of total DNA, as determined spectrophotometrically at 260 nm) were boiled during 10 min, and blotted on a nylon membrane (Hybond-N from Amersham) using a Hoefer slot blot apparatus from Pharmacia (Sweden). After UV cross-linking, the membrane was prehybridized during 30 min at 42° C. with DIG (digoxigenin) easy Hyb solution® (Boehringer Mannheim, Germany). Then, the GS- or Z-29 specific digoxigenin labeled probe was added and allowed to hybridize by incubation overnight at 42° C. […]

[5] = test system: Davis strain CMV; test: Reduction of CMV-induced cytopathicity in HEL cells; format: cell-based, human cytomegalovirus (HCMV); conditions: Human betaherpesvirus 5, 168 h; HEL cells, virus-induced cytopathicity after seven days; read-out: Antiviral EC50 (ug/ml) Davis strain CMV
Method in brief: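 Confluent HEL cells were infected with 100 PFU/well CMV for 1–2 h, then washed and kept in MEM with 2% FCS and test compound. EC50 is the concentration cutting virus-induced cytopathicity by 50% versus untreated control at day 7. Where cytotoxicity interfered, percent protection at the stated concentration is given.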

melting point [°C] | SMILES | EC50 [1] [µg/mL] | EC50 [2] [µg/mL] | HIV-2 % Protection ([2]; protection of CEM cells against virus-induced cytopathicity at the concentration in the previous column) [%] | MIC (concentration causing minimal changes in cell morphology) ([3]; Exp. 1) [μg/ml] | MIC (concentration causing minimal changes in cell morphology) ([3]; Exp. 2) [μg/ml] | MIC (concentration causing minimal changes in cell morphology) ([3]; Exp. 3) | EC50 ([4]; MOLT-3, read-out: EC50 Based on CPE, MOLT-3 cells, Exp. 1) [µg/mL] | EC50 ([4]; MOLT-3, read-out: EC50 Based on CPE, MOLT-3 cells, Exp. 2) [µg/mL] | EC50 ([4]; MOLT-3, read-out: EC50 Based on CPE, MOLT-3 cells, Exp. 3) [µg/mL] | EC50 ([4]; MOLT-3, read-out: EC50 Based on Viral DMA Detection, MOLT-3 cells, Exp. 1) [µg/mL] | EC50 ([4]; MOLT-3, read-out: EC50 Based on Viral DMA Detection, MOLT-3 cells, Exp. 2) [µg/mL] | EC50 ([4]; MOLT-3, read-out: EC50 Based on Viral DMA Detection, MOLT-3 cells, Exp. 3) [µg/mL] | EC50 [5] [µg/mL]
171 to 173 | Cc1ccc(C)c(CS(=O)(=O)c2c(C)ccc[n+]2[O-])c1 [Compound 165, 2-[((2,5-dimethylphenyl)methyl)sulfonyl]-3-methylpyridine-1-oxide] | 0.14 (≈ 0.48 µM) | > 4 | 0.0 | – | – | – | – | – | – | – | – | – | –
– | Cc1ccc(C)c(CS(=O)(=O)c2cccc[n+]2[O-])c1 [Compound 10, 2-(2,5-Dimethylphenylmethylsulfonyl)pyridine N-oxide] | 1.8 (≈ 6.49 µM) | 5.8 (≈ 20.9 µM) | – | 50 | 100 | ≧50 μg/ml | 12.6 (≈ 45.4 µM) | 11.1 (≈ 40 µM) | 11.8 (≈ 42.5 µM) | 21.8 (≈ 78.6 µM) | 9.4 (≈ 33.9 µM) | 15.6 (≈ 56.2 µM) | 10 (≈ 36.1 µM)

Reference: patent US7064139B2, “Method for treating retroviral infections” (Uniroyal Chemical Company, Inc., priority 2001, dated 2006)
